Results from patent publication US8952024B2, “Herbicidal pyrimidone derivatives” (E I du Pont de Nemours and Company, priority 2009, dated 2015).

Key:
Format in all cases: in vivo
[1] = test system: johnsongrass (Sorghum halepense); test: Test B pre-/postemergence plant response
Summary of the method: (§1)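 Visual ratings on a 0–100 scale (100 = complete control) were made versus untreated controls 13–15 days after treatment in a greenhouse. Compounds in surfactant-containing non-phytotoxic solvent were applied preemergence to seeds in loam–sand blend or postemergence to 1- to 4-leaf plants (2–18 cm).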

[2] = test system: kochia (Kochia scoparia); test: Test B pre-/postemergence plant response
Summary of the method: as §1

[3] = test system: pigweed (Amaranthus retroflexus); test: Test B pre-/postemergence plant response
Summary of the method: as §1

[4] = test system: goosegrass (Eleusine indica); test: Test B pre-/postemergence plant response
Summary of the method: as §1

[5] = test system: velvetleaf (Abutilon theophrasti); test: Test B pre-/postemergence plant response
Summary of the method: as §1

[6] = test system: wild oat (Avena fatua); test: Test B pre-/postemergence plant response
Summary of the method: as §1

[7] = test system: soybean (Glycine max); test: Test B pre-/postemergence plant response
Summary of the method: as §1

[8] = test system: ragweed (common ragweed, Ambrosia elatior); test: Test B pre-/postemergence plant response
Summary of the method: as §1

[9] = test system: wheat (Triticum aestivum); test: Test B pre-/postemergence plant response
Summary of the method: as §1

[10] = test system: cocklebur (Xanthium strumarium); test: Test B pre-/postemergence plant response
Summary of the method: as §1

[11] = test system: canarygrass (Phalaris minor); test: Test B postemergence plant response
Summary of the method: (§2)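 Visual ratings from 0 (no effect) to 100 (complete control), made against controls 13–15 days after treatment, kept in a greenhouse. Compounds were applied postemergence to potted plants at the 1- to 4-leaf stage (2–18 cm).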

[12] = test system: windgrass (Apera spica-venti); test: Test B postemergence plant response
Summary of the method: as §2

[13] = test system: chickweed (Stellaria media); test: Test B postemergence plant response
Summary of the method: as §2

[14] = 31 g ai/ha, postemergence, scale 0 to 100, 0 is no effect, 100 is complete control
[15] = 62 g ai/ha, postemergence, 0 is no effect, 100 is complete control, 13 to 15 days
[16] = Postemergence, 125 g ai/ha, scale 0 to 100 (0 no effect, 100 complete control)
[17] = Postemergence, 250 g ai/ha, scale 0 to 100 (0 no effect, 100 complete control)
[18] = Preemergence, 31 g ai/ha, scale 0 to 100 (0 no effect, 100 complete control)
[19] = Preemergence, 62 g ai/ha, scale 0 to 100 (0 no effect, 100 complete control)
[20] = Preemergence, 125 g ai/ha, scale 0 to 100, 0 no effect, 100 complete control
[21] = Preemergence, 250 g ai/ha, 0 to 100 scale

COCCn1c(-c2cc(F)cc(F)c2)ncc(C(=O)C2=C(O)CCCC2=O)c1=O [Compound 119]
Plant response rating, Johnsongrass [1, 14]: 10
Johnsongrass plant response rating (0 to 100 scale) [1, 15]: 40
Plant response rating, Johnsongrass [1, 16]: 75
Plant response rating, Johnsongrass [1, 17]: 80
Plant response rating, Johnsongrass [1, 18]: 50
Plant response rating, Johnsongrass [1, 19]: 85
Plant response rating, Johnsongrass [1, 20]: 95
Johnsongrass plant response rating [1, 21]: 95
Plant response rating, Kochia [2, 14]: 40
Kochia plant response rating (0 to 100 scale) [2, 15]: 75
Plant response rating, Kochia [2, 16]: 95
Plant response rating, Kochia [2, 17]: 100
Plant response rating, Kochia [2, 18]: 0
Plant response rating, Kochia [2, 19]: 0
Plant response rating, Kochia [2, 20]: 55
Kochia plant response rating [2, 21]: 98
Plant response rating, Pigweed [3, 14]: 95
Pigweed plant response rating (0 to 100 scale) [3, 15]: 98
Plant response rating, Pigweed [3, 16]: 100
Plant response rating, Pigweed [3, 17]: 100
Plant response rating, Pigweed [3, 18]: 80
Plant response rating, Pigweed [3, 19]: 90
Plant response rating, Pigweed [3, 20]: 100
Pigweed plant response rating [3, 21]: 100
Plant response rating, Goosegrass [4, 14]: 75
Goosegrass plant response rating (0 to 100 scale) [4, 15]: 75
Plant response rating, Goosegrass [4, 16]: 85
Plant response rating, Goosegrass [4, 17]: 95
Plant response rating, Goosegrass [4, 18]: 100
Plant response rating, Goosegrass [4, 19]: 100
Plant response rating, Goosegrass [4, 20]: 100
Goosegrass plant response rating [4, 21]: 100
Velvetleaf plant response rating (0 to 100 scale) [5, 15]: 80
Plant response rating, Velvetleaf [5, 16]: 100
Plant response rating, Velvetleaf [5, 17]: 100
Plant response rating, Velvetleaf [5, 18]: 75
Plant response rating, Velvetleaf [5, 19]: 80
Plant response rating, Velvetleaf [5, 20]: 100
Velvetleaf plant response rating [5, 21]: 100
Plant response rating, Oat, Wild [6, 14]: 50
Oat, Wild plant response rating (0 to 100 scale) [6, 15]: 60
Plant response rating, Oat, Wild [6, 16]: 95
Plant response rating, Oat, Wild [6, 17]: 95
Plant response rating, Oat, Wild [6, 18]: 0
Plant response rating, Oat, Wild [6, 19]: 45
Plant response rating, Oat, Wild [6, 20]: 50
Oat, Wild plant response rating [6, 21]: 80
Soybean plant response rating (0 to 100 scale) [7, 15]: 50
Plant response rating, Soybean [7, 16]: 60
Plant response rating, Soybean [7, 17]: 80
Plant response rating, Soybean [7, 18]: 10
Plant response rating, Soybean [7, 19]: 55
Plant response rating, Soybean [7, 20]: 80
Soybean plant response rating [7, 21]: 80
Ragweed plant response rating (0 to 100 scale) [8, 15]: 75
Plant response rating, Ragweed [8, 16]: 95
Plant response rating, Ragweed [8, 17]: 98
Plant response rating, Ragweed [8, 18]: 80
Plant response rating, Ragweed [8, 19]: 80
Plant response rating, Ragweed [8, 20]: 95
Ragweed plant response rating [8, 21]: 95
Wheat plant response rating (0 to 100 scale) [9, 15]: 40
Plant response rating, Wheat [9, 16]: 60
Plant response rating, Wheat [9, 18]: 0
Plant response rating, Wheat [9, 19]: 0
Plant response rating, Wheat [9, 20]: 30
Wheat plant response rating [9, 21]: 50
Plant response rating, Cocklebur [10, 14]: 0
Cocklebur plant response rating (0 to 100 scale) [10, 15]: 10
Plant response rating, Cocklebur [10, 16]: 80
Plant response rating, Cocklebur [10, 17]: 95
Plant response rating, Cocklebur [10, 18]: 0
Plant response rating, Cocklebur [10, 20]: 70
Cocklebur plant response rating [10, 21]: 85
Plant response rating, Canarygrass [11, 14]: 5
Canarygrass plant response rating (0 to 100 scale) [11, 15]: 5
Plant response rating, Canarygrass [11, 16]: 30
Plant response rating, Canarygrass [11, 17]: 30
Windgrass plant response rating (0 to 100 scale) [12, 15]: 85
Plant response rating, Windgrass [12, 16]: 100
Plant response rating, Chickweed [13, 14]: 70
Chickweed plant response rating (0 to 100 scale) [13, 15]: 80
Plant response rating, Chickweed [13, 16]: 100
Plant response rating, Chickweed [13, 17]: 100
